Patent publication EP0385952A2, “Use of a naphthalenmethanamino derivative as antiinflammatory agent and pharmaceutical compositions containing it” (SANDOZ AG, priority 1989, dated 1990)
Marks after values point to notes of the source that are not given here.

What was measured:
Type in all cases: in vivo
NMRI mice [1] = assay: Cantharidin-induced pinnal swelling in mice (irritant contact dermatitis, 2.1.1.); details: epicutaneous, pinnal weight
Method: (§1) Skin irritation with arachidonic acid or cantharidin is often used to experimentally induce inflammation in order to evaluate the anti-inflammatory activity of a compound [see e.g. Inflammation 8 (1984) 134-135; 10 (1986) 205-214]. NMRI mice (8 animals per group) receive 10 µl of a 10 % solution of arachidonic acid [J.M. Young et al., J. Invest. Derm. 82 (1986) 367-371] in acetone or, respectively, 0.08 % cantharidin [K.E. Swingle et al., Arch. Int. Pharmacodyn. Ther. 254 (1981) 168-176] in acetone applied to the medial and lateral surface of the right external ear. Treatment is performed either prophylactically 30 minutes before irritation (arachidonic acid) or, respectively, either simultaneously with the application of irritant solution or therapeutically 20 minutes after irritation (cantharidin), by a single epicutaneous application of the test compound dissolved in a mixture of N,N-dimethylacetamide, acetone and alcohol (2:2:4). The evaluation of the test group is effected by comparison with a control group of animals having received on the right ear lobe only the carrier substance or the irritant solution. The animals are killed 1.5 hours (arachidonic acid) or, respectively, 17 hours (cantharidin) after application of the irritant and efficacy in assessed by determination of the differences in auricular weight. Differences in weights (D) of right (involved) and left (uninvolved) pinnae of animals treated with test compound and arachidonic acid or cantharidin (T-group) are compared with differences in mice treated with arachidonic acid only or cantharidin only (C-group). Efficacy (%) is calculated according to the equation: [formula]

guinea pigs = assay: UV-erythema model (2.2.); details: therapeutic, test concentration 5.0 %, topical, erythema score
Method: Female guinea pigs weighing 250-300 g are used. On the day before experiment they are shorn on both flanks followed by a final dry shaving without skin irritation two hours before UV exposure. Two circular areas (10 mm diameter) on each flank are exposed 10 seconds to ultraviolet rays from […] at an intensity of 16 mW/cm² (UVA) and 500 mW/cm² (UVB). Drugs are administered topically immediately after exposure to UV light in a volume of 50 µl of 25 % ethanol and 75 %polyethylenglycol-400 to the irradiated skin areas on the right flank. Two areas on the left flank serve as vehicle control. Erythema is assessed visually 3.5 and 5.5 hours after irradiation and results expressed in scores. Changes in erythema intensity after drug administration are expressed as percentages of the scored erythema intensity in vehicle-treated areas.

mice [2] = assay: TPA-induced pinnal swelling in mice (irritant contact dermatitis, 2.1.2.); details: therapeutic, topical, pinnal weight after 6 hours
Method: as §1
(§2) This model is similar to the above (see 2.1.1.). Skin inflammation is induced with 15 µl of 0.23 % croton oil in a mixture of dimethylacetamide, acetone and ethanol (2:4:4), or with 10 µl of 0.005 % TPA [12-O-tetradecanoylphorbol-13-acetate; Sigma] prepared in acetone with 0.5 % dimethylsulfoxide. Topical treatment is performed either simultaneously with the irritation (croton oil) or 20 minutes after the application (TPA). The test compound is prepared in DAE. Efficacy is assessed 6 hours after onset of irritation by determination of the auricular weight as described above.

mice [3] = assay: Croton oil-induced pinnal swelling in mice (irritant contact dermatitis, 2.1.2.); details: simultaneous, topical, pinnal weight after 6 hours
Method: as §1, §2

NMRI mice [4] = assay: Arachidonic acid-induced pinnal swelling in mice (irritant contact dermatitis, 2.1.1.); details: prophylactic, epicutaneous, pinnal weight
Method: as §1

## CCCCOc1ccc(CC(=O)NO)cc1 [Bufexamac, 2-[p-(n-butyloxy)phenyl]-acetohydroxamic acid, reference compound]
NMRI mice [1]; simultaneous, test concentration 1.2 %
  Efficacy (%): 36%
NMRI mice [1]; simultaneous, test concentration 3.6 %
  Efficacy (%): 29%
NMRI mice [1]; therapeutic, test concentration 1.2 %
  Efficacy (%): 22%
NMRI mice [1]; therapeutic, test concentration 3.6 %
  Efficacy (%): 14%
Guinea pigs
  Efficacy (%): 8%
Mice [2]; test concentration 1.2 %
  Efficacy (%): 1%
Mice [2]; test concentration 3.6 %
  Efficacy (%): 2%
Mice [3]; test concentration 1.2 %
  Efficacy (%): 11%
Mice [3]; test concentration 3.6 %
  Efficacy (%): 36** %
NMRI mice [4]; test concentration 1.2 %
  Efficacy (%): 35* %
NMRI mice [4]; test concentration 3.6 %
  Efficacy (%): 22* %
